Data from US6949573B2, “Nicotinamide derivatives useful as PDE4 inhibitors” (Pfizer Inc, priority 2002, dated 2005).

System: human peripheral blood mononuclear cells
Test: Inhibition of LPS-stimulated TNFα release from human peripheral blood mononuclear cells (TNFα screen)
Format: cell-based
Settings: LPS-stimulated human PBMC, 18 hours incubation, TNFα in supernatant by ELISA
Description: Venous blood Is collected from healthy volunteers and the mononuclear cells purified by centrifugation through Histopaque (ficoll) cushions. TNFα production from these cells is stimulated by addition of lipopolysaccharide. After 18 hours incubation in the presence of LPS, the cell supernatant is removed and the concentration of TNFα in the supernatant determined by ELISA. Addition of PDE4 inhibitors reduces the amount of TNFα produced. An IC50 is determined which is equal to the concentration of compound that gives 50% inhibition of TNFα production as compared to the LPS stimulated control wells.

With `COC(=O)CCC(=O)NC1CCC(NC(=O)c2cc(F)cnc2Oc2ccc(F)cc2)CC1` (stereo not drawn) [Example 110, Syn-N-(4-{[5-fluoro-2-(4-fluoro-phenoxy)-pyridine-3-carbonyl]-amino}-cyclo-hexyl)-succinamic acid methyl ester] the IC50 was 0.014 µM.
